Measurements reported in paper PMC8191290, “Substrate specificities and reaction kinetics of the yeast oligosaccharyltransferase isoforms” (The Journal of Biological Chemistry, 2021).

Tests used:
[1] = target: T1, OST3 complex (Saccharomyces cerevisiae, UniProt P39007); assay: Synthetic LLO preferences, OST3 complex; assay type: biochemical; details: OST3 complex 0.09 μM, 25 μM TAMRA-YANATS, 50 μM LLO; n = 3
T1 construct: were purified separately from strains expressing only one type of complex; made in house; host or cells: Saccharomyces cerevisiae, BY4742-derived strain ost6::LEU2MX6 OST4-1D4::kanMX6 YEp352-OST3
Procedure: (§1) Figure 5 OST3 complex turns over both glycosylation substrates faster than the OST6 complex, but with similar substrate affinities.A, enzyme activity of OST3 and OST6 complexes. Reactions were performed with 25 μM peptide TAMRA-YANATS, 50 μM LLO C20, and varying concentrations of purified OST3 complex (blue) or OST6 complex (red). Glycopeptide product was measured by UPLC and initial rates of reaction were determined by linear regression of the initial phase of the reaction. Turnover rates were determined by linear regression of the initial rates of reaction measured across the enzyme concentrations of 0.01–0.1 μM for OST3 complex and 0.1–0.5 μM for OST6 complex. Error bars indicate standard deviations from the mean of three reaction sets (n = 3). B, synthetic LLO preferences of OST3 and OST6 complexes. […] Turnover rates were determined by linear regression of the initial phase of the reaction and accounting for the enzyme concentration in the reaction. […] C, quantification of kinetic parameters for the synthetic LLO C20. […] Turnover rates were determined by linear regression of the initial phase of the reaction and accounting for the enzyme concentration in the reaction. […] D, quantification of kinetic parameters for the peptide TAMRA-YANATS. […] Turnover rates were determined by linear regression of the initial phase of the reaction and accounting for the enzyme concentration in the reaction. […]

[2] = target: T2, OST6 complex (Saccharomyces cerevisiae, UniProt P39007); assay: Synthetic LLO preferences and OST activity comparison, OST6 complex; assay type: biochemical; details: OST6 complex 0.5 μM, 25 μM TAMRA-YANATS, 50 μM LLO; n = 3
T2 construct: were purified separately from strains expressing only one type of complex; made in house; host or cells: Saccharomyces cerevisiae, BY4742-derived strain ost3::LEU2MX6 OST4-1D4::kanMX6 YEp352-OST6
Procedure: as §1

With `CC(=O)N[C@H]1[C@@H](OP(=O)(O)OP(=O)(O)OC/C=C(\C)CC/C=C(\C)CCC=C(C)C)O[C@H](CO)[C@@H](O[C@@H]2O[C@H](CO)[C@@H](O)[C@H](O)[C@H]2NC(C)=O)[C@@H]1O` [LLO C15] the “turnover rate ranking among LLO analogs” value [1] was “lowest reaction rates” and the “turnover rate ranking among LLO analogs” value [2] was “lowest reaction rates”.
